According to patent publication US10961215B2, “N-aryl and N-heteroaryl piperidine derivatives as liver X receptor beta agonists, compositions, and their use” (Merck Sharp & Dohme Corp., priority 2016, dated 2021):

Columns and labels:
[1] = molecular target: T1, GST tagged LXRbeta LBD (ligand binding domain) (Homo sapiens, UniProt P55055); experiment: LanthaScreen TR-FRET Liver X Receptor Coactivator Assay, LXR beta-LBD (co-activator recruitment; IP and % Emax relative to T0901317); assay type: biochemical; settings: for EC50: Inflection Point of co-activator recruitment, LXR beta-LBD, TR-FRET; for Emax: efficacy at max dose in relation to reference T0901317, LXR beta-LBD, read-out: LXR beta actiivty at max dose (%)
T1 construct: purchased Invitrogen pv4658.pps
T1 sequence (P55055 222-460 limits assumed): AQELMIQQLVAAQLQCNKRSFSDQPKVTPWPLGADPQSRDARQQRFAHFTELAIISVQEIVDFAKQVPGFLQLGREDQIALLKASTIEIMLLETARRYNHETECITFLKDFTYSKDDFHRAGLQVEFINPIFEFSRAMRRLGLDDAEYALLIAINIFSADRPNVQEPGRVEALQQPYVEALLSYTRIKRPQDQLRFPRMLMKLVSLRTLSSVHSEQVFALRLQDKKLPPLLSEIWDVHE
Experimental: (§1) Potency (Inflection Point, IP) and efficacy (Emax) are evaluated via compound-induced co-activator recruitment to glutathione-S-transferase (GST) tagged LXRbeta and LXRalpha LBD (ligand binding domain) proteins in relation to reference dual agonist compound T0901317 (N-(2,2,2-Trifluoroethyl)-N-[4-[2,2,2-trifluoro-1-hydroxy-1-(trifluoromethyl)ethyl]phenyl]benzenesulfonamide) using the LanthaScreen™ TR-FRET Liver X Receptor Coactivator Assays according to manufacturer's instructions (Invitrogen catalog number pv4658.pps and pv4655). While running the LanthaScreen™ TR-FRET Liver X Receptor Coactivator Assay, LXR alpha-LBD or LXR beta-LBD was added to ligand test compounds followed by addition of a mixture of a fluorescein-labelled coactivator peptide and terbium-conjugated anti-GST antibody. After an incubation period at room temperature, TR-FRET (time-resolved fluorescence resonance energy transfer) was measured using a filter-based instrument capable of TR-FRET, e.g. PerkinElmer Envision.

[2] = molecular target: T2, GST tagged LXRalpha LBD (ligand binding domain) (Homo sapiens, UniProt Q13133); experiment: LanthaScreen TR-FRET Liver X Receptor Coactivator Assay, LXR alpha-LBD (co-activator recruitment; IP and % Emax relative to T0901317); assay type: biochemical; settings: for LXR alpha IP (nM) / EC50: Inflection Point of co-activator recruitment, LXR alpha-LBD, TR-FRET; for Emax: efficacy at max dose in relation to reference T0901317, LXR alpha-LBD, read-out: LXR alpha actiivty at max dose (%)
T2 construct: purchased Invitrogen pv4655
T2 sequence (Q13133 209-447 limits assumed): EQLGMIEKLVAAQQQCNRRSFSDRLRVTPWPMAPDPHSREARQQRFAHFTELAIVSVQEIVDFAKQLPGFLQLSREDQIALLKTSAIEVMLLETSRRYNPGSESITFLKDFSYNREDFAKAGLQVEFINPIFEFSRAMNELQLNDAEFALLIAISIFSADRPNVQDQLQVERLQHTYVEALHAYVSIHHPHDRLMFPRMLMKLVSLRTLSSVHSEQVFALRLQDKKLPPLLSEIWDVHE
Experimental: as §1

| EC50 [1] [nM] | Emax [1] [%] | LXR alpha IP (nM) [2] | Emax [2] [%] | EC50 [2] [nM] | activity (stated in words in the synthesis text) ([1]; cis/trans isomers of Example 11-1 separated by Prep-HPLC (RT=1.95 min, 1.98 min), assay not given) | SMILES |
| --- | --- | --- | --- | --- | --- | --- |
| 201 | 82 | No IP | 16 |  |  | COc1cccc([C@@](O)(C(=O)NC2(CCC3CCN(c4ccc(C(=O)N(C)C)c(Cl)n4)CC3)CC2)C(F)(F)F)c1 [Example 8-1, (R)-2-chloro-N,N-dimethyl-6-(4-(2-(1-(3,3,3-trifluoro-2-hydroxy-2-(3-methoxyphenyl)propanamido)cyclopropyl)ethyl)piperidin-1-yl)nicotinamide] |
| 14 | 55 |  | 32 | 158 |  | CC(C)N(C)C(=O)c1ccc(N2CCC3(CC2)C[C@@H]3CCN(C)C(=O)[C@](O)(c2ccccc2)C(F)(F)F)cc1Cl [Example 7-13, 2-chloro-N-isopropyl-N-methyl-4-((R)-1-(2-((R)-3,3,3-trifluoro-2-hydroxy-N-methyl-2-phenylpropanamido)ethyl)-6-azaspiro[2.5]octan-6-yl)benzamide] |
| 107 | 42 | No IP | 0 |  |  | COc1cccc([C@@](O)(C(=O)N(C)CCCC2CCN(c3ccc(C(=O)N(C)C4CC4)c(Cl)n3)CC2)C(F)(F)F)c1 [Example 2-3, (R)-2-chloro-N-cyclopropyl-N-methyl-6-(4-(3-(3,3,3-trifluoro-2-hydroxy-2-(3-methoxyphenyl)-N-methylpropanamido)propyl)piperidin-1-yl)nicotinamide] |
| 83 | 67 | No IP | 14 |  |  | COc1cccc([C@@](O)(C(=O)N(C)CCCC2CCN(c3ccc(C(=O)N(C)CCn4cncn4)c(Cl)n3)CC2)C(F)(F)F)c1 [Example 2-14] |
| 1330 | 67 | No IP | 18 |  |  | COc1cccc([C@@](O)(C(=O)Nc2ccc(C3CCN(c4ccc(C(=O)N(C)C)c(Cl)c4)CC3)cc2)C(F)(F)F)c1 [Example 10-3, (R)-2-chloro-N,N-dimethyl-4-(4-(4-(3,3,3-trifluoro-2-hydroxy-2-(3-methoxyphenyl)propanamido)phenyl)piperidin-1-yl)benzamide] |
| 525 | 57 | No IP | 0 |  |  | CN(C)C(=O)c1ccc(N2CCC3(CC2)CC3CCCNC(=O)C(C)(C)c2ccccc2)cc1Cl (stereo not drawn) [Example 7-36, 2-chloro-N,N-dimethyl-4-(1-(3-(2-methyl-2-phenylpropanamido)propyl)-6-azaspiro[2.5]octan-6-yl)benzamide] |
| 78 | 63 | No IP | 0 |  |  | CCOc1cccc([C@@](O)(C(=O)N(C)CCCC2CCN(c3ccc(C(=O)N(C)C)c(Cl)n3)CC2)C(F)(F)F)c1 [Example 1-36, (R)-2-chloro-6-(4-(3-(2-(3-ethoxyphenyl)-3,3,3-trifluoro-2-hydroxy-N-methylpropanamido)propyl)piperidin-1-yl)-N,N-dimethylnicotinamide] |
| 330 | 60 | No IP | 9 |  |  | CN(C)C(=O)c1ccc(N2CCC(CCCN(C)C(=O)[C@@](C)(O)c3ccccc3)CC2)nc1Cl [Example 1-21, (S)-2-chloro-6-(4-(3-(2-hydroxy-N-methyl-2-phenylpropanamido)propyl)piperidin-1-yl)-N,N-dimethylnicotinamide] |
| 342 | 54 |  | 10 | 4090 |  | CN(C)C(=O)c1ccc(N2CCC3(CC2)CC3CCN(C)C(=O)[C@@](O)(c2ccccc2)C(F)(F)F)cc1Cl (stereo partly drawn) [Example 7-1, 2-chloro-N,N-dimethyl-4-(1-(2-((S)-3,3,3-trifluoro-2-hydroxy-N-methyl-2-phenylpropanamido)ethyl)-6-azaspiro[2.5]octan-6-yl)benzamide] |
| 273 | 118 |  | 28 | 2390 |  | CN(C)C(=O)c1ccc(N2CCC(CC3CC(NC(=O)[C@](O)(c4ccccc4)C(F)(F)F)C3)CC2)nc1Cl (stereo partly drawn) [Example 11-2, (R)-2-chloro-N,N-dimethyl-6-(4-((3-(3,3,3-trifluoro-2-hydroxy-2-phenylpropanamido)cyclobutyl)methyl)piperidin-1-yl)nicotinamide] |
| 63 | 67 | No IP | 14 |  |  | CN(C)C(=O)c1ccc(N2CCC(C)(CCCN(C)C(=O)[C@@]3(c4ccccc4)CCCO3)CC2)nc1Cl [Example 9-4, (S)-2-chloro-N,N-dimethyl-6-(4-methyl-4-(3-(N-methyl-2-phenyltetrahydrofuran-2-carboxamido)propyl)piperidin-1-yl)nicotinamide] |
| 1020 | 31 |  | 32 | 6100 |  | CN(CC[C@@H]1CC12CCN(c1ccc(C(=O)NC3CC3)c(Cl)c1)CC2)C(=O)[C@](O)(c1ccccc1)C(F)(F)F [Example 7-26, 2-chloro-N-cyclopropyl-4-((S)-1-(2-((R)-3,3,3-trifluoro-2-hydroxy-N-methyl-2-phenylpropanamido)ethyl)-6-azaspiro[2.5]octan-6-yl)benzamide] |
| 64 | 80 |  | 27 | 1460 |  | CN(C)C(=O)c1ccc(N2CCC(CCCN(C)C(=O)[C@]3(c4ccccc4F)CCCO3)CC2)nc1Cl [Example 1-6, (R)-2-chloro-6-(4-(3-(2-(2-fluorophenyl)-N-methyl-tetrahydrofuran-2-carboxamido)propyl)piperidin-1-yl)-N,N-dimethylnicotinamide] |
| 264 | 23 | No IP | 0 |  |  | CN(C)C(=O)c1ccc(N2CCC3(CC2)CC3CCCN(C)C(=O)C(C)(C)c2ccccc2)cc1Cl (stereo not drawn) [Example 7-34, 2-chloro-4-(1-(3-(N,2-dimethyl-2-phenylpropanamido)propyl)-6-azaspiro[2.5]octan-6-yl)-N,N-dimethylbenzamide] |
| 81 | 60 |  | 42 | 1150 |  | CN(CC[C@H]1CC12CCN(c1ccc(C(=O)NC3CC3)c(Cl)c1)CC2)C(=O)[C@](O)(c1ccccc1)C(F)(F)F [Example 7-11, 2-chloro-N-cyclopropyl-4-((R)-1-(2-((R)-3,3,3-trifluoro-2-hydroxy-N-methyl-2-phenylpropanamido)ethyl)-6-azaspiro[2.5]octan-6-yl)benzamide] |
| 160 | 104 |  | 36 | 2340 |  | CN(C)C(=O)c1ccc(N2CCC(CCCNC(=O)[C@]3(c4ccccc4)CCCO3)CC2)nc1Cl [Example 5-19, (R)-2-chloro-N,N-dimethyl-6-(4-(3-(2-phenyltetrahydrofuran-2-carboxamido)propyl)piperidin-1-yl)nicotinamide] |
| 442 | 38 | No IP | 4 |  |  | COc1cccc([C@@](O)(C(=O)NC[C@@H]2C[C@@H]2C2CCN(c3ccc(C(=O)N(C)C)c(Cl)n3)CC2)C(F)(F)F)c1 [Example 15-10, 2-chloro-N,N-dimethyl-6-(4-((1R,2R)-2-(((R)-3,3,3-trifluoro-2-hydroxy-2-(3-methoxyphenyl)propanamido)methyl)cyclopropyl)piperidin-1-yl)nicotinamide] |
|  |  |  |  |  | not active | COc1cccc([C@@](O)(C(=O)N(C)C2CC(CC3CCN(c4ccc(C(=O)N(C)C)c(C)n4)CC3)C2)C(F)(F)F)c1 (single isomer, unassigned) [first eluting peak] |
